Test results reported in patent US8673591B2, “Genetic incorporation of 3-aminotyrosine into reductases” (The Scripps Research Institute, priority 2007, dated 2014).
Read-outs that look alike come from different tables or passages of the source.

What was measured:
DH10B E. coli cells [1] = assay: Toxicity of NH2Y: growth of E. coli in GMML medium and on agar plates; type: cell-based
Description: (§1) Toxicity and uptake of NH2Y. Evolution of an NH2Y-specific aminoacyl-tRNA synthetase (RS) requires that NH2Y is taken up by E. coli, that it is not toxic, and that it is not incorporated into proteins by any endogenous RSs. All three requirements were met by NH2Y. […] The presence of DTT however, caused cells to grow at a rate 25-35% more slowly than those in the presence of only NH2Y or absence of NH2Y/DTT.

[2] = biological target: T1, E. coli ribonucleotide reductase (RNR) (Escherichia coli, UniProt P00452); conditions: inactivation of wt α2β2 by N3ADP/dGTP; 20 s time scale; cited from earlier work
T1 construct: made in house; host or cells: E. coli DH10B (NH2Y-α2s)

DH10B E. coli cells [3] = assay: Qualitative assay for cellular uptake of NH2Y by LC-MS; type: cell-based; conditions: 1 mM NH2Y with or without 0.1 mM DTT
Protocol: Qualitative assay for cellular uptake of NH2Y by LC-MS. The uptake assay was performed as previously described with minor modifications.^48 DH10B E. coli cells were grown to saturation at 37° C. in GMML in the presence of 1 mM NH2Y and 0.1 mM DTT and subsequently harvested and lysed as outlined previously. Chromatography of the crude extract was performed on a Zorbax SB-C18 (5 μm, 4.6×150 mm) column with a linear gradient from 5% to 25% MeCN in 0.1% TFA solution over 8 min at 0.5 mL/min. Under these conditions, NH2Y elutes at ˜13% MeCN. For HPLC-ESI-MS analysis, NH2Y standard solutions were prepared in water.
as §1

[4] = cited from earlier work

With `O[C@H](CS)[C@H](O)CS` (racemic) [DTT, DL-dithiothreitol] the slower growth rate (DH10B E. coli cells [1]; Escherichia coli, 0.1 mM) was 25-35%.
For `[N-]=[N+]=N[C@@H]1[C@H](O)[C@@H](COP(=O)(O)OP(=O)(O)O)O[C@H]1n1cnc2c(N)ncnc21` [N3ADP, 2′-Azido-2′-deoxyadenosine-5′-diphosphate], the “initial Y122• lost (equivalent amount of N• formed)” value [2] is given as 50-60%.
In the case of `Nc1cc(C[C@H](N)C(=O)O)ccc1O` [NH2Y, 3-aminotyrosine], the “growth rates in the presence of substance” value (DH10B E. coli cells [1]; NH2Y 1 mM, GMML medium) is listed as “not significantly affected”, the “cellular uptake (HPLC and ESI-MS of cell extracts)” value (DH10B E. coli cells [3]) is listed as “observed in all cell extracts” and the reduction potential ([4]; pH 7.0) is listed as 0.64 V. The “reduction potential lower than that of Y” value ([4]; pH 7.0) was 0.19 V and the “reduction potential lower than that of Y” value ([4]; pH 7) was 190 mV.
